Measured values from ChEMBL document CHEMBL5728888, “Metallo-beta-lactamase inhibitors and methods of use thereof” (2021).

What follows are compounds tested against Metallo-beta-lactamase type 2 (Bacteria, UniProt C7C422) (assay: Enzyme Activity: Determination of IC50 : The Class B enzyme activities were measured in the presence of the test inhibitor in a fluorescence assay against a commercially available substrate consisting of a cephalosporin core linking 7-hydroxycoumarin to fluorescein (CCF2-FA). The enzyme (NDM-1, IMP-1 or VIM-1) and the substrate were diluted in 100 mM KH2PO4 buffer (pH 7) containing 0.005% Tween-20 and 10 μM ZnSO4. In the assay, the final concentration of enzyme was 1 pM, 2 pM and 30 pM for NDM-1, IMP-1 and VIM-1, respectively, and the final concentration of CCF2-FA was 1.25 μM. The test inhibitor was dissolved in dimethylsulfoxide and diluted 1:50 in the assay, resulting in a final concentration range of 20 μM to 0.00063 μM. In a 384-well microplate, the test inhibitor was incubated with the metallo-β-lactamase enzyme and the substrate for 2 hours at 25° C. Fluorescence at 460 nm following excitation at 405 nm was measured. The IC50 value was determined from semi-logarithmic plots of enzyme inhibition versus inhibitor concentration, with a curve generated using a 4-parameter fit.).
Metallo-beta-lactamase type 2, sequence (C7C422 whole entry): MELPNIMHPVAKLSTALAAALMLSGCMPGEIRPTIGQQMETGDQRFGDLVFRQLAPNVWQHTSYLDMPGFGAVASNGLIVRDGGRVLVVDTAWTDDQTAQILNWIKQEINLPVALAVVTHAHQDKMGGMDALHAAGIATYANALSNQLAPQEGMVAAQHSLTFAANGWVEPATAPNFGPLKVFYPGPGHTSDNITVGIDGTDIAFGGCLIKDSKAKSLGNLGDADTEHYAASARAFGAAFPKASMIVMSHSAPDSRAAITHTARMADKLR
With `NC[C@@H](O)CNS(=O)(=O)c1ccc(Nc2ncc[nH]2)c(-c2nn[nH]n2)c1S(N)(=O)=O` the IC50 was 10.8 nM. In the case of `NC[C@@H](O)CNS(=O)(=O)c1ccc(N2CC[C@H](CN)C2)c(-c2nn[nH]n2)c1S(N)(=O)=O`, the IC50 is reported as 16.8 nM. Compound `NCC1CCN(c2ccc(S(=O)(=O)N[C@@H]3CCNC3)c(S(N)(=O)=O)c2-c2nn[nH]n2)CCN1` (stereo partly drawn) has an IC50 of 19.2 nM.
